Patent US9133207B2, “Tetrandrine derivatives with substituted 5-carbon, preparation method and use thereof” (Hangzhou Bensheng Pharmaceutical Co., Ltd., priority 2011, dated 2015)
In brackets after ≈: the same amount, converted by molar mass.

What was measured:
[1] = system: H9 (acute lymphoblastic leukemia, ALL); assay: Leukemia cell growth inhibition, MTT, 72 h (Example 5); assay type: cell-based, human; settings: for IC50 / IC90: Homo sapiens, 72 h, MTT
How it was run: (§1)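 6000 cells per well were seeded in RPMI 1640 with 10% FBS, exposed to graded concentrations of 5-substituted tetrandrine derivatives, and held 72 hours at 37° C, 5% CO2. Viable cell concentration was then measured by MTT.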

[2] = system: Jurkat (acute lymphoblastic leukemia, ALL); assay: as above; assay type: cell-based, human; settings: for IC50 / IC90: Homo sapiens, Jurkat, 72 h, MTT; for anti-Jurkat activity increase over tetrandrine: compared with tetrandrine
How it was run: as §1

[3] = system: K562/adr (drug-resistant, chronic myeloid leukemia, CML); assay: as above; assay type: cell-based, human; settings: Homo sapiens, K562/Adr; 72 h, MTT
How it was run: as §1

[4] = system: Kasumi-1 (acute myeloid leukemia M2 type, AML-M2); assay: as above; assay type: cell-based, human; settings: Homo sapiens, Kasumi 1
How it was run: as §1

[5] = system: NB4 (acute promyelocytic leukemia, AML); assay: as above; assay type: cell-based, human; settings: Homo sapiens; 72 h, MTT
How it was run: as §1

[6] = system: RPMI8226 (multiple myeloma); assay: Multiple myeloma cell growth inhibition, MTT, 72 h (Example 6); assay type: cell-based, human; settings: Homo sapiens, RPMI-8226; 72 h, MTT, RPMI8226
How it was run: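 RPMI8226 cells (6000 per well) in RPMI 1640 with 10% FBS were exposed to a range of tetrandrine derivative concentrations for 72 h at 37 °C under 5% CO2. Viable cell concentration was then measured by MTT.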

[7] = system: CaES-17 (esophageal cancer cell); assay: Solid tumor cell growth inhibition, MTT, 72 h (Example 7); assay type: cell-based, human; settings: Homo sapiens, CaEs17; 72 h, MTT, CAES-17
How it was run: (§2)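 Cells (4000/well) were seeded in DMEM high glucose with 10% FBS and grown 24 h at 37 °C, 5% CO2, then exposed to tetrandrine derivatives at different concentrations for 72 h. Viable cells were measured by MTT, with viability expressed as % of untreated control (100%).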

[8] = system: Hep-2 (laryngeal carcinoma); assay: as above; assay type: cell-based, human; settings: Homo sapiens; 72 h, MTT, Hep 2
How it was run: as §2

[9] = system: MG63 (osteosarcoma); assay: as above; assay type: cell-based, human; settings: Homo sapiens; 72 h, MTT, MG-63
How it was run: as §2

[10] = system: PANC-1 (pancreatic cancer); assay: as above; assay type: cell-based, human; settings: Homo sapiens; 72 h, MTT, PANC-1
How it was run: as §2

[11] = system: PC-3 (prostate cancer); assay: as above; assay type: cell-based, human; settings: Homo sapiens; 72 h, MTT, PC-3
How it was run: as §2

[12] = system: A549 (human lung cancer); assay: as above; assay type: cell-based; settings: Homo sapiens; 72 h, MTT, A549
How it was run: as §2

[13] = system: Becap37 (human breast cancer cell); assay: as above; assay type: cell-based; settings: Homo sapiens; 72 h, MTT, Becap-37
How it was run: as §2

[14] = system: CNE (nasopharyngeal carcinoma cell); assay: as above; assay type: cell-based; settings: Homo sapiens
How it was run: as §2

[15] = system: Hela (human cervical cancer cell); assay: as above; assay type: cell-based; settings: Homo sapiens; 72 h, MTT, Hela
How it was run: as §2

[16] = system: Huh7 (human liver cancer cell); assay: as above; assay type: cell-based; settings: Homo sapiens; 72 h, MTT, Huh-7
How it was run: as §2

[17] = system: MGC 803 (human gastric cancer cell); assay: as above; assay type: cell-based; settings: Homo sapiens
How it was run: as §2

[18] = system: RKO (human colon adenocarcinoma cell); assay: as above; assay type: cell-based; settings: for IC50 / IC90: Homo sapiens, 72 h, MTT, RKO
How it was run: as §2

[19] = system: SK-OV-3 (ovarian cancer cell); assay: as above; assay type: cell-based; settings: Homo sapiens
How it was run: as §2

[20] = system: U87 MG (malignant glioma cell); assay: as above; assay type: cell-based; settings: Homo sapiens, U-87 MG
How it was run: as §2

COc1ccc2cc1Oc1ccc(cc1)C[C@H]1c3cc(c(OC)cc3CCN1C)Oc1c(OC)c(OC)c(CN3CCCCC3)c3c1[C@H](C2)N(C)CC3 [BS-TE-355]
IC50 [1]: 0.63 µg/mL (≈ 0.875 µM) | IC90 [1]: 1.96 µg/mL (≈ 2.72 µM) | IC50 [2]: 0.48 µg/mL (≈ 0.667 µM) | IC90 [2]: 4.52 µg/mL (≈ 6.28 µM) | anti-Jurkat activity increase over tetrandrine [2]: ~4 fold | IC50 [3]: 0.44 µg/mL (≈ 0.611 µM) | IC90 [3]: 8.5 µg/mL (≈ 11.8 µM) | IC50 [4]: 0.46 µg/mL (≈ 0.639 µM) | IC90 [4]: 2.55 µg/mL (≈ 3.54 µM) | IC50 [5]: 0.4 µg/mL (≈ 0.556 µM) | IC90 [5]: 1.4 µg/mL (≈ 1.94 µM) | IC50 [6]: 0.04 µg/mL (≈ 0.0556 µM) | IC90 [6]: 3.08 µg/mL (≈ 4.28 µM) | IC50 [7]: 1.42 µg/mL (≈ 1.97 µM) | IC90 [7]: 11 µg/mL (≈ 15.3 µM) | IC50 [8]: 3.22 µg/mL (≈ 4.47 µM) | IC90 [8]: 8.45 µg/mL (≈ 11.7 µM) | IC50 [9]: 0.77 µg/mL (≈ 1.07 µM) | IC90 [9]: 1.27 µg/mL (≈ 1.76 µM) | IC50 [10]: 2.27 µg/mL (≈ 3.15 µM) | IC90 [10]: 8.22 µg/mL (≈ 11.4 µM) | IC50 [11]: 1.83 µg/mL (≈ 2.54 µM) | IC90 [11]: 3.65 µg/mL (≈ 5.07 µM) | IC50 [12]: 3.4 µg/mL (≈ 4.72 µM) | IC90 [12]: 14.9 µg/mL (≈ 20.7 µM) | IC50 [13]: 0.76 µg/mL (≈ 1.06 µM) | IC90 [13]: 2.69 µg/mL (≈ 3.74 µM) | IC50 [14]: 1.17 µg/mL (≈ 1.63 µM) | IC90 [14]: 3.64 µg/mL (≈ 5.06 µM) | IC50 [15]: 2 µg/mL (≈ 2.78 µM) | IC90 [15]: 6.92 µg/mL (≈ 9.61 µM) | IC50 [16]: 1.28 µg/mL (≈ 1.78 µM) | IC90 [16]: 2.45 µg/mL (≈ 3.4 µM) | IC50 [17]: 0.92 µg/mL (≈ 1.28 µM) | IC90 [17]: 12 µg/mL (≈ 16.7 µM) | IC50 [18]: 0.25 µg/mL (≈ 0.347 µM) | IC90 [18]: 1.18 µg/mL (≈ 1.64 µM) | IC50 [19]: 3.5 µg/mL (≈ 4.86 µM) | IC90 [19]: > 16 µg/mL | IC50 [20]: 0.37 µg/mL (≈ 0.514 µM) | IC90 [20]: 1.16 µg/mL (≈ 1.61 µM)

COc1ccc2cc1Oc1ccc(cc1)C[C@H]1c3cc(c(OC)cc3CCN1C)Oc1c(OC)c(OC)c(CNC3CC3)c3c1[C@H](C2)N(C)CC3 [BS-TE-301]
IC50 [1]: 1.02 µg/mL (≈ 1.47 µM) | IC90 [1]: 2.12 µg/mL (≈ 3.06 µM) | IC50 [2]: 1.09 µg/mL (≈ 1.58 µM) | IC90 [2]: 6.61 µg/mL (≈ 9.55 µM) | IC50 [3]: 0.49 µg/mL (≈ 0.708 µM) | IC90 [3]: 2.81 µg/mL (≈ 4.06 µM) | IC50 [4]: 1.67 µg/mL (≈ 2.41 µM) | IC90 [4]: 5.53 µg/mL (≈ 7.99 µM) | IC50 [5]: 0.8 µg/mL (≈ 1.16 µM) | IC90 [5]: 2 µg/mL (≈ 2.89 µM) | IC50 [6]: 0.06 µg/mL (≈ 0.0867 µM) | IC90 [6]: 2.95 µg/mL (≈ 4.26 µM) | IC50 [7]: 2.93 µg/mL (≈ 4.23 µM) | IC90 [7]: 22.3 µg/mL (≈ 32.2 µM) | IC50 [8]: 3.5 µg/mL (≈ 5.06 µM) | IC90 [8]: 12.5 µg/mL (≈ 18 µM) | IC50 [9]: 2 µg/mL (≈ 2.89 µM) | IC90 [9]: 3.8 µg/mL (≈ 5.49 µM) | IC50 [10]: 2.79 µg/mL (≈ 4.03 µM) | IC90 [10]: 7.35 µg/mL (≈ 10.6 µM) | IC50 [11]: 3.02 µg/mL (≈ 4.36 µM) | IC90 [11]: 4.68 µg/mL (≈ 6.76 µM) | IC50 [12]: 5.1 µg/mL (≈ 7.37 µM) | IC90 [12]: > 16 µg/mL | IC50 [13]: 2.3 µg/mL (≈ 3.32 µM) | IC90 [13]: 5.6 µg/mL (≈ 8.09 µM) | IC50 [14]: 3.7 µg/mL (≈ 5.35 µM) | IC90 [14]: 6.2 µg/mL (≈ 8.96 µM) | IC50 [15]: 1.97 µg/mL (≈ 2.85 µM) | IC90 [15]: 3.83 µg/mL (≈ 5.54 µM) | IC50 [16]: 1.27 µg/mL (≈ 1.84 µM) | IC90 [16]: 2.4 µg/mL (≈ 3.47 µM) | IC50 [17]: 1.74 µg/mL (≈ 2.51 µM) | IC90 [17]: 7.1 µg/mL (≈ 10.3 µM) | IC50 [18]: 1.22 µg/mL (≈ 1.76 µM) | IC90 [18]: 2.94 µg/mL (≈ 4.25 µM) | IC50 [19]: 3.77 µg/mL (≈ 5.45 µM) | IC90 [19]: 24.3 µg/mL (≈ 35.1 µM) | IC50 [20]: 0.69 µg/mL (≈ 0.997 µM) | IC90 [20]: 3.05 µg/mL (≈ 4.41 µM)

COc1ccc2cc1Oc1ccc(cc1)C[C@H]1c3cc(c(OC)cc3CCN1C)Oc1c(OC)c(OC)c(CN3CCN(C)CC3)c3c1[C@H](C2)N(C)CC3 [BS-TE-360]
IC50 [1]: 0.22 µg/mL (≈ 0.299 µM) | IC90 [1]: 1.71 µg/mL (≈ 2.33 µM) | anti-H9 activity increase over tetrandrine ([1]; compared with tetrandrine): ~12 fold | IC50 [2]: 0.5 µg/mL (≈ 0.68 µM) | IC90 [2]: 4.5 µg/mL (≈ 6.12 µM) | anti-Jurkat activity increase over tetrandrine [2]: ~4 fold | IC50 [3]: 0.33 µg/mL (≈ 0.449 µM) | IC90 [3]: 2.4 µg/mL (≈ 3.27 µM) | IC50 [4]: 0.41 µg/mL (≈ 0.558 µM) | IC90 [4]: 2.28 µg/mL (≈ 3.1 µM) | IC50 [5]: 0.5 µg/mL (≈ 0.68 µM) | IC90 [5]: 1.4 µg/mL (≈ 1.9 µM) | IC50 [6]: 0.05 µg/mL (≈ 0.068 µM) | IC90 [6]: 1.5 µg/mL (≈ 2.04 µM) | IC50 [7]: 1.75 µg/mL (≈ 2.38 µM) | IC90 [7]: 10.5 µg/mL (≈ 14.2 µM) | IC50 [8]: 2.4 µg/mL (≈ 3.27 µM) | IC90 [8]: 9.39 µg/mL (≈ 12.8 µM) | IC50 [9]: 0.8 µg/mL (≈ 1.09 µM) | IC90 [9]: 1.9 µg/mL (≈ 2.59 µM) | IC50 [10]: 1.88 µg/mL (≈ 2.56 µM) | IC90 [10]: 9.54 µg/mL (≈ 13 µM) | IC50 [11]: 1.85 µg/mL (≈ 2.52 µM) | IC90 [11]: 2.5 µg/mL (≈ 3.4 µM) | IC50 [12]: 1.7 µg/mL (≈ 2.31 µM) | IC90 [12]: 9.2 µg/mL (≈ 12.5 µM) | IC50 [13]: 1.2 µg/mL (≈ 1.63 µM) | IC90 [13]: 3.7 µg/mL (≈ 5.03 µM) | IC50 [14]: 0.64 µg/mL (≈ 0.871 µM) | IC90 [14]: 3.55 µg/mL (≈ 4.83 µM) | IC50 [15]: 1.2 µg/mL (≈ 1.63 µM) | IC90 [15]: 6 µg/mL (≈ 8.16 µM) | IC50 [16]: 0.93 µg/mL (≈ 1.27 µM) | IC90 [16]: 2.4 µg/mL (≈ 3.27 µM) | IC50 [17]: 0.8 µg/mL (≈ 1.09 µM) | IC90 [17]: 5.17 µg/mL (≈ 7.03 µM) | IC50 [18]: 0.12 µg/mL (≈ 0.163 µM) | IC90 [18]: 1.02 µg/mL (≈ 1.39 µM) | anti-RKO activity increase over tetrandrine ([18]; compared with tetrandrine): 22 fold | IC50 [19]: 1.62 µg/mL (≈ 2.2 µM) | IC90 [19]: 3.22 µg/mL (≈ 4.38 µM) | IC50 [20]: 0.33 µg/mL (≈ 0.449 µM) | IC90 [20]: 1.55 µg/mL (≈ 2.11 µM)
